Assays:
Assay in all cases: IA-DTB cysteine engagement
Type in all cases: binding
Conditions in all cases: 22Rv1 cells, 20 μM probe, 1 h, relative to DMSO
MTMR12_C152 = target: T1, MTMR12_C152 (Homo sapiens, UniProt Q9C0I1)
T1 construct: endogenous in cells; host or cells: 22Rv1
T1 sequence (Q9C0I1 1-747): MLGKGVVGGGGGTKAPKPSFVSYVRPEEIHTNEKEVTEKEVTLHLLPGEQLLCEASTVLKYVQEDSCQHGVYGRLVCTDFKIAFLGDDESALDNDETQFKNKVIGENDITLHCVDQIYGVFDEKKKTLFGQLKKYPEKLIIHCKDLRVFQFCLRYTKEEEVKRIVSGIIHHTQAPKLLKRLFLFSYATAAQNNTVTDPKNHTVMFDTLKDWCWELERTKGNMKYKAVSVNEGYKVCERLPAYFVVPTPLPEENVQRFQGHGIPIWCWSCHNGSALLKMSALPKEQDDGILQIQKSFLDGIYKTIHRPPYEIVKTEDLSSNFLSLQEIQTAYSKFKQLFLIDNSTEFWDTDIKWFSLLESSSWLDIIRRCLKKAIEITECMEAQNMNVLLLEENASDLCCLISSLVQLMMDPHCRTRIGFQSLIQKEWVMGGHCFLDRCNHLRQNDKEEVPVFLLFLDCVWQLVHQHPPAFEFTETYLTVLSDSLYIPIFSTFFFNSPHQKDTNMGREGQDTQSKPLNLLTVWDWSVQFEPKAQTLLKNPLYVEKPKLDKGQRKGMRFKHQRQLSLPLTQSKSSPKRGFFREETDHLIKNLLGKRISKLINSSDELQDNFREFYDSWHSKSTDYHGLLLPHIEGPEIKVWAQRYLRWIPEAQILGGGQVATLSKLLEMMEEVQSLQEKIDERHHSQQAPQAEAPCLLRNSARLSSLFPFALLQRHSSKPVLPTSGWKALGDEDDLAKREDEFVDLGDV
Procedure, shortened: (§1)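 In-situ probe treatment of cells; lysate 2 mg/mL, IA-DTB 1 h RT; MeOH/CHCl3 precipitation, DTT/iodoacetamide, trypsin; streptavidin enrichment; TMT labeling, high-pH fractionation. Ratio = TMT reporter intensity / mean DMSO channels, median-normalized.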

PRAF2_C34 = target: T2, PRAF2_C34 (Homo sapiens, UniProt O60831)
T2 construct: endogenous in cells; host or cells: 22Rv1
T2 sequence (O60831 1-178): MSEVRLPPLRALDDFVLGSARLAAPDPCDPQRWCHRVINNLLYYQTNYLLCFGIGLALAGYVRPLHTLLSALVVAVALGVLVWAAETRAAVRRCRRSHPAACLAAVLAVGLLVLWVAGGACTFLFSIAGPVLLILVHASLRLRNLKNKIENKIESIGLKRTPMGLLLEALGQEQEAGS
Procedure, shortened: as §1

SUPT3H_C268 = target: T3, SUPT3H_C268 (Homo sapiens, UniProt O75486)
T3 construct: endogenous in cells; host or cells: 22Rv1
T3 sequence (O75486 1-317): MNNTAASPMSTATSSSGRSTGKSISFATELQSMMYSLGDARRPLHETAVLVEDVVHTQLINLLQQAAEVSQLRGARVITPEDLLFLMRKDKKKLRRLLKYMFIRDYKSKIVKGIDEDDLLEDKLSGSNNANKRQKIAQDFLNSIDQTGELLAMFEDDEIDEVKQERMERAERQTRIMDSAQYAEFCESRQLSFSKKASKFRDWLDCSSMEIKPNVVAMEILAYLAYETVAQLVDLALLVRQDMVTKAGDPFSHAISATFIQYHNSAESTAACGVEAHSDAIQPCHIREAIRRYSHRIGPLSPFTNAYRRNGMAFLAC
Procedure, shortened: as §1

SRC_C280 = target: T4, SRC_C280 (Homo sapiens, UniProt P12931)
T4 construct: endogenous in cells; host or cells: 22Rv1
T4 sequence (P12931 whole entry): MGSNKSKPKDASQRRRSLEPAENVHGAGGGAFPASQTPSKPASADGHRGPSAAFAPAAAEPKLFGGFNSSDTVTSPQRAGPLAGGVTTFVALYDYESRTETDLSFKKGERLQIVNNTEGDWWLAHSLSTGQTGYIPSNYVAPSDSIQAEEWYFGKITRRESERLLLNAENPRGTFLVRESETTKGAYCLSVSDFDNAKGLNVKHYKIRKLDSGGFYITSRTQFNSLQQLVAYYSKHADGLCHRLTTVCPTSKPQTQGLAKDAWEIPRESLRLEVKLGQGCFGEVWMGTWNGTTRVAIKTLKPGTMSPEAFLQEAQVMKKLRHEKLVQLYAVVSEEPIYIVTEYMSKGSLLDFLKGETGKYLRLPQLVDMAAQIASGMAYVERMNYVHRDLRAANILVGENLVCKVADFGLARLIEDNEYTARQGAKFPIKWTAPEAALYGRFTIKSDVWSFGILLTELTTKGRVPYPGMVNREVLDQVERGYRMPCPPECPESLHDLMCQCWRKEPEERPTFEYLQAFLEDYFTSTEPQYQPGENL
Procedure, shortened: as §1

CCNE2_C109 = target: T5, CCNE2_C109 (Homo sapiens, UniProt O96020)
T5 construct: endogenous in cells; host or cells: 22Rv1
T5 sequence (O96020 whole entry): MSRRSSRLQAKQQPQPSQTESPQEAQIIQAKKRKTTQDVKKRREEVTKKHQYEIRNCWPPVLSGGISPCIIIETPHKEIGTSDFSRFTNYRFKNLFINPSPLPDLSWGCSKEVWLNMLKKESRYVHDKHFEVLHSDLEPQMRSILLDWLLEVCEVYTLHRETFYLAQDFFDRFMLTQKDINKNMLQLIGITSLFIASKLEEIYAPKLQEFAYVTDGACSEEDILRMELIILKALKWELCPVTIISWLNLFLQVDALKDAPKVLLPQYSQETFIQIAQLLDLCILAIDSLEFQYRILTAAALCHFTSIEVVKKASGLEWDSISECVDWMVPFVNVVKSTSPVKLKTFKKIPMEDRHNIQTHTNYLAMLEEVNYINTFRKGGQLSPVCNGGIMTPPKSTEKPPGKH
Procedure, shortened: as §1

SMILES | % engagement MTMR12_C152 (MTMR12_C152) | % engagement PRAF2_C34 (PRAF2_C34) | % engagement SUPT3H_C268 (SUPT3H_C268) | % engagement SRC_C280 (SRC_C280) | % engagement CCNE2_C109 (CCNE2_C109)
C=CC(=O)N1C[C@H](c2ccc(Br)cc2)[C@H]1C(=O)Nc1cccc2cccnc12 [MY-3A, (2S,3S)-1-acryloyl-3-(4-bromophenyl)-N-(quinolin-8-yl)azetidine-2-carboxamide] | 12% | 55.5% | 62.5% | 2% | 21.75%
C=CC(=O)N1C[C@@H](c2ccc(Br)cc2)[C@H]1C(=O)Nc1cccc2cccnc12 [MY-1A, (2S,3R)-1-acryloyl-3-(4-bromophenyl)-N-(quinolin-8-yl)azetidine-2-carboxamide] | 40.5% | 76% | 27% | 17.75% | 77%
C=CC(=O)N1C[C@H](c2ccc(Br)cc2)[C@@H]1C(=O)Nc1cccc2cccnc12 [MY-1B, (2R,3S)-1-acryloyl-3-(4-bromophenyl)-N-(quinolin-8-yl)azetidine-2-carboxamide] | 31% | 74% | 34.5% | 92.25% | 76.75%
C=CC(=O)N1C[C@H](c2ccc(Br)cc2)[C@H]1C(=O)Nc1cccc2cccnc12 [MY-3B, (2S,3S)-1-acryloyl-3-(4-bromophenyl)-N-(quinolin-8-yl)azetidine-2-carboxamide] | 91.5% | 78.5% | 70.5% | 64% | 42.75%
